Measured values taken from patent US12084472B2 (Ardelyx, Inc., priority 2015, dated 2024).

Molecular target: T1, human TGR5 (Homo sapiens, UniProt Q8TDU6)
T1 construct: expressed in transfected cells; host or cells: HEK293
T1 sequence (Q8TDU6 1-330): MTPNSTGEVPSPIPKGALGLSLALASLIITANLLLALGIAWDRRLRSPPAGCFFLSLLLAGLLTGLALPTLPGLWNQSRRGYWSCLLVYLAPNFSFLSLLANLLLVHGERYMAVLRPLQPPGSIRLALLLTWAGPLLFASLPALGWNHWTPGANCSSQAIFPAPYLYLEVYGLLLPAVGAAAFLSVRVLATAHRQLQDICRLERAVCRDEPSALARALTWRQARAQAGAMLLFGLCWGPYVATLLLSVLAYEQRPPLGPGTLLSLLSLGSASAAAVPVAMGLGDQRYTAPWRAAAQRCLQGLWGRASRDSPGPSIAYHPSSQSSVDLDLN
Test: Cell-based TGR5 assay (cAMP generation, HTRF)
Conditions: HEK293 cells stably transfected with human TGR5; cAMP by HTRF; 30 minutes at 37° C.; read-out: pEC50 Human TGR5 (converted)
In short: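 First, compounds in 3-fold serial dilution were placed in HBSS with 10 mM HEPES pH 7.4 and 0.5 mM IBMX. Next, human TGR5-expressing HEK293 cells were added and incubated 30 min at 37° C. Finally, cAMP was detected by HTRF and pEC50 derived by logistic fitting.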

| SMILES | EC50 [nM] |
| --- | --- |
| O=C(O)CCCC(=O)N(CCCCc1cc(Cl)c(CNC2(c3cnccc3-c3ccccc3OC3CC3)CC2)cc1Cl)C[C@H](O)[C@@H](O)[C@H](O)[C@H](O)CO [Compound I-63, 4-[(4-[2,5-dichloro-4-[([1-[4-(2-cyclopropoxyphenyl)pyridin-3-yl]cyclopropyl]amino)methyl]phenyl]butyl) [(2S,3R,4R,5R)-2,3,4,5,6-pentahydroxyhexyl]carbamoyl]butanoic acid] | 126 to 1000 |
| CN(CCCCNC(=O)NC[C@H](O)[C@@H](O)[C@H](O)[C@H](O)CO)S(=O)(=O)c1ccc(Cl)c(CNC2(c3cnccc3-c3ccccc3OC3CC3)CC2)c1 [Compound I-471, 1-(4-{N-methyl4-chloro-3-[({1-[4-(2-cyclopropoxyphenyl)pyridin-3-yl]cyclopropyl}amino)methyl]benzenesulfonamido}butyl)-3-[(2S,3R,4R,5R)-2,3,4,5,6-pentahydroxyhexyl]urea] | < 100 |
| O=C(NCCOCCSc1ccc(Cl)c(COC2(c3cnccc3-c3ccccc3OC3COC3)CC2)c1)NC[C@H](O)[C@@H](O)[C@H](O)[C@H](O)CO [Compound I-493, 1-(2-(2-(4-Chloro-3-((1-(4-(2-(oxetan-3-yloxy)phenyl)pyridin-3-yl)cyclopropoxy)methyl)phenylthio)ethoxy)ethyl)-3-((2S,3R,4R,5R)-2,3,4,5,6-pentahydroxyhexyl)urea] | < 100 |
| CCNC(=O)[C@H](CCCCNS(=O)(=O)c1ccc(Cl)c(COC2(c3cnccc3-c3ccccc3OC3CC3)CC2)c1)NC(=O)NC[C@H](O)[C@@H](O)[C@H](O)[C@H](O)CO [Compound I-487] | 126 to 1000 |
| CC(OCCc1cc(Cl)c(COC2(c3cnccc3-c3ccccc3OC3CC3)CC2)cc1Cl)C(=O)N(C)C[C@H](O)[C@@H](O)[C@H](O)[C@H](O)CO (stereo partly drawn) [Compound I-155, 2-{2-[2,5-dichloro-4-({1-[4-(2-cyclopropoxyphenyl)pyridin-3-yl]cyclopropoxy}methyl)phenyl]ethoxy}-N-methyl-N-[(2S,3R,4R,5R)-2,3,4,5,6-pentahydroxyhexyl]propanamide] | < 100 |
| CN(C)S(=O)(=O)c1cc(COC2(c3cnccc3-c3ccccc3OC3CC3)CC2)c(Cl)cc1O [Compound I-731, 4-chloro-5-([1-[4-(2-cyclopropoxyphenyl)pyridin-3-yl]cyclopropoxy]methyl)-2-hydroxy-N,N-dimethylbenzene-1-sulfonamide] | < 100 |
| CC(C)C(=O)N(CCCCc1cc(Cl)c(COC2(c3cnccc3-c3ccccc3OC3CC3)CC2)cc1Cl)C[C@H](O)[C@@H](O)[C@H](O)[C@H](O)CO [Compound I-69, N-{4-[2,5-dichloro-4-({1-[4-(2-cyclopropoxyphenyl)pyridin-3-yl]cyclopropoxy}methyl)phenyl]butyl}-2-methyl-N-[(2S,3R,4R,5R)-2,3,4,5,6-pentahydroxyhexyl]propanamide] | 126 to 1000 |
| O=S(=O)(NC[C@H](O)[C@@H](O)[C@H](O)[C@H](O)CO)c1ccc(Cl)c(COC2(c3cnccc3-c3ccccc3OC3CC3)CC2)c1 [Compound I-397, (2S,3R,4R,5R)-S-[4-chloro-3-({1-[4-(2-cyclopropoxyphenyl)pyridin-3-yl]cyclopropoxy}methyl)phenyl]-2,3,4,5,6-pentahydroxyhexane-1-sulfonamido] | 126 to 1000 |
| O=C(CCCCc1cc(Cl)c(COC2(c3cnccc3-c3ccccc3OC3CC3)CC2)cc1Cl)N(CC(O)CO)C[C@H](O)[C@@H](O)[C@H](O)[C@H](O)CO (stereo partly drawn) [Compound I-122, 5-(2,5-dichloro-4-((1-(4-(2-cyclopropoxyphenyl)pyridin-3-yl)cyclopropoxy)methyl)phenyl)-N-(2,3-dihydoxypropyl)-N-((2S,3R,4R,5R)-2,3,4,5,6-pentahydroxyhexyl) pentanamide] | < 100 |
| CN(CCC(=O)NC[C@H](O)[C@@H](O)[C@H](O)[C@H](O)CO)S(=O)(=O)c1ccc(Cl)c(COC2(c3cnccc3-c3ccccc3OC3CC3)CC2)c1 [Compound I-434, 3-[N-methyl4-chloro-3-({1-[4-(2-cyclopropoxyphenyl)pyridin-3-yl]cyclopropoxy}methyl)benzenesulfonamido]-N-[(2S,3R,4R,5R)-2,3,4,5,6-pentahydroxyhexyl]propanamide] | < 100 |
| CN(C)CCN(C[C@H](O)[C@@H](O)[C@H](O)[C@H](O)CO)C(=O)CCCCc1cc(Cl)c(COC2(c3cnccc3-c3ccccc3OC3CC3)CC2)cc1Cl [Compound I-207, 5-[2,5-dichloro-4-({1-[4-(2-cyclopropoxyphenyl)pyridin-3-yl]cyclopropoxy}methyl)phenyl)-N-[2-(dimethylamino)ethyl]-N-[(2S,3R,4R,5R)-2,3,4,5,6-pentahydroxyhexyl]pentanamide] | 126 to 1000 |
| COCCN(CCCCc1cc(Cl)c(COC2(c3cnccc3-c3ccccc3OC3CC3)CC2)cc1C)C(=O)NC[C@H](O)[C@@H](O)[C@H](O)[C@H](O)CO [Compound I-116, 1-{4-[5-chloro-4-({1-[4-(2-cyclopropoxyphenyl)pyridin-3-yl]cyclopropoxy}methyl)-2-methylphenyl]butyl}-1-(2-methoxyethyl)-3-[(2S,3R,4R,5R)-2,3,4,5,6-pentahydroxyhexyl]urea] | < 100 |
| O=C(NCCCCc1cc(Cl)c(CNC2(c3cnccc3-c3ccccc3OC3CC3)CC2)cc1Cl)NC[C@H](O)[C@@H](O)[C@H](O)[C@H](O)CO [Compound I-138, 1-(4-{2,5-dichloro-4-[({1-[4-(2-cyclopropoxyphenyl)pyridin-3-yl]cyclopropyl}amino)methyl]phenyl}butyl)-3-[(2S,3R,4R,5R)-2,3,4,5,6-pentahydroxyhexyl]urea] | < 100 |
| Cn1c(C(=O)NC[C@H](O)[C@@H](O)[C@H](O)[C@H](O)CO)cnc1SCc1ccc(Cl)c(COC2(c3cnccc3-c3ccccc3OC3CC3)CC2)c1 [Compound I-758, 2-((4-chloro-3-((1-(4-(2-cyclopropoxyphenyl)pyridin-3-yl)cyclopropoxy)methyl)benzyl)thio)-1-methyl-N-((2S,3R,4R,5R)-2,3,4,5,6-pentahydroxyhexyl)-1H-imidazole-5-carboxamide] | 126 to 1000 |
| O=C(NC[C@H](O)[C@@H](O)[C@H](O)[C@H](O)CO)[C@H]1[C@@H]2CN(S(=O)(=O)c3ccc(Cl)c(COC4(c5cnccc5-c5ccccc5OC5CC5)CC4)c3)C[C@@H]21 [Compound I-435, (1R,5S,6S)-3-[4-chloro-3-({1-[4-(2-cyclopropoxyphenyl)pyridin-3-yl]cyclopropoxy}methyl)benzenesulfonyl]-N-[(2S,3R,4R,5R)-2,3,4,5,6-pentahydroxyhexyl]-3-azabicyclo[3.1.0]hexane-6-carboxamide] | < 100 |
| O=C(CCCSc1ccc(Cl)c(COC2(c3cnccc3-c3ccccc3OC3CC3)CC2)c1)N(CCOCCO)C[C@H](O)[C@@H](O)[C@H](O)[C@H](O)CO [Compound I-683, 4-{[4-chloro-3-({1-[4-(2-cyclopropoxyphenyl)pyridin-3-yl]cyclopropoxy}methyl)phenyl]sulfanyl}-N-[2-(2-hydroxyethoxy)ethyl]-N-[(2S,3R,4R,5R)-2,3,4,5,6-pentahydroxyhexyl]butanamide] | 126 to 1000 |
| O=C(NC[C@H](O)[C@@H](O)[C@H](O)[C@H](O)CO)N[C@@H](CCCCNS(=O)(=O)c1ccc(COC2(c3cnccc3-c3ccccc3OC3CC3)CC2)c(Cl)c1)C(=O)O [Compound I-485, (S)-6-(3-chloro-4-((1-(4-(2-cyclopropoxyphenyl)pyridine-3-yl)cyclopropoxy)methyl)phenylsulfonamido)-2-(3-((2S,3R,4R,5R)-2,3,4,5,6-pentahydroxyhexyl)ureido) hexanoic acid] | < 100 |
| O=C([C@@H](O)[C@@H](O)[C@H](O)[C@@H](O)CO)N(CCCCSc1ccc(Cl)c(CNC2(c3cnccc3-c3ccccc3OC3CC3)CC2)c1)CCN1CCS(=O)(=O)CC1 [Compound I-557, (2S,3S,4R,5S)-N-[4-({4-chloro-3-[({1-[4-(2-cyclopropoxyphenyl)pyridin-3-yl]cyclopropyl}amino)methyl]phenyl}sulfanyl)butyl]-N-[2-(1,1-dioxo-1λ^6,4-thiomorpholin-4-yl)ethyl]-2,3,4,5,6-pentahydroxyhexanamide] | 126 to 1000 |
| CCOC(=O)NCCCN(CCCSc1ccc(Cl)c(CNC2(c3cnccc3-c3ccccc3OC3CC3)CC2)c1)C(=O)[C@@H](O)[C@@H](O)[C@H](O)[C@@H](O)CO [Compound I-590, ethyl N-{3-[(2S,3S,4R,5S)-N-[3-({4-chloro-3-[({1-[4-(2-cyclopropoxyphenyl)pyridin-3-yl]cyclopropyl}amino)methyl]phenyl}sulfanyl)propyl]-2,3,4,5,6-pentahydroxyhexanamido]propyl} carbamate] | < 100 |
| O=C1CCCN1CCCN(CCCCSc1ccc(Cl)c(CNC2(c3cnccc3-c3ccccc3OC3CC3)CC2)c1)C(=O)[C@@H](O)[C@@H](O)[C@H](O)[C@@H](O)CO [Compound I-554, (2S,3S,4R,5S)-N-[4-({4-chloro-3-[({1-[4-(2-cyclopropoxyphenyl)pyridin-3-yl]cyclopropyl}amino)methyl]phenyl}sulfanyl)butyl]-2,3,4,5,6-pentahydroxy-N-[3-(2-oxopyrrolidin-1-yl)propyl]hexanamide] | 126 to 1000 |
| CC(C)N(CCCCNC(=O)[C@@H](O)[C@@H](O)[C@H](O)[C@@H](O)CO)S(=O)(=O)c1cc(COC2(c3cnccc3-c3ccccc3OC3CC3)CC2)c(Cl)cc1F [Compound I-728, (2S,3S,4R,5S)-2,3,4,5,6-pentahydroxy-N-[4-[N-(propan-2-yl)[4-chloro-5-([1-[4-(2-cyclopropoxyphenyl)pyridin-3-yl]cyclopropoxy]methyl)-2-fluorobenzene]sulfonamido]butyl]hexanamide] | < 100 |
